Results on two compounds are retold here after article PMC11025614 (Pharmacology Research & Perspectives, 2024).

The conditions of data set [1]: oral midazolam with fluconazole; cited from earlier work.
The nature of data set [2]: Therapeutic drug monitoring of sirolimus trough concentration. Type of data set: in vivo, human.
The nature of data set [3]: PopPK modeling. Type of data set: in vivo, human. As to conditions: for Vd: female, human, blood, oral.
For data set [4] the following is noted: cited from earlier work.

As to `Cc1ncc2n1-c1ccc(Cl)cc1C(c1ccccc1F)=NC2` [midazolam], in data set [1], the “increase of AUC” value was 270% and the “increase of C max” value is listed as 130%.

With `CO[C@H]1C[C@@H]2CC[C@@H](C)[C@@](O)(O2)C(=O)C(=O)N2CCCC[C@H]2C(=O)O[C@H]([C@H](C)C[C@@H]2CC[C@@H](O)[C@H](OC)C2)CC(=O)[C@H](C)/C=C(\C)[C@@H](O)[C@@H](OC)C(=O)[C@H](C)C[C@H](C)/C=C/C=C/C=C/1C` [sirolimus], the “sirolimus C min” value is 8.2 ng/mL in data set [2] (4.5 mg twice daily with fluconazole 400 mg/day); 4.7 ng/mL in data set [2] (9 mg daily with oral fluconazole 400 mg once daily, day 3 after initiation); 2.9 to 4.2 ng/mL in data set [2] (after 1 week of 9 mg/day (assumed steady-state), no fluconazole). The same compound displayed a sirolimus concentrations in data set [2] (afterward, during fluconazole, for more than 4 weeks) of 3.1 to 9.5 ng/mL. In addition, in data set [2] (maintenance dose 9 mg sirolimus/day, before fluconazole), the “mean sirolimus C min” value is 3.5 ng/mL. Further, the “CL1 (apparent oral clearance, clearance from central compartment)” value in data set [3] (before fluconazole) was 30.7 L/h; in data set [3] (during fluconazole) it was 14.1 L/h. Also, the figures for the “CL2 (clearance between central and peripheral compartments)” value in data set [3] (before fluconazole) and in data set [3] (during fluconazole) were 253 L/h and 8.56 L/h, respectively. Moreover, the “V 2 (volume of distribution of peripheral compartment)” value in data set [3] (before fluconazole) worked out at 305 L; in data set [3] (during fluconazole), 361 L. Moreover, the values for the Vd in data set [3] and in data set [3] (5 mg/day) were 81.3 L and 33.7 L, respectively. The “variation in apparent oral clearance between patients” value in data set [4] (ciclosporin and prednisone coadministered) is listed as 4.5 fold. Besides, the “apparent oral sirolimus clearance, population mean” value in data set [4] (estimated by Wu and coworkers) is 12.9 L/h.
